According to publication PMC5552358, “Imidazoquinoxaline anticancer derivatives and imiquimod interact with tubulin: Characterization of molecular microtubule inhibiting mechanisms in correlation with cytotoxicity” (PLoS ONE, 2017):

Experiments:
TLR7 [1] = target: T1, TLR7 (Mus musculus, UniProt P58681); assay: NF-kB reporter HEK293 cells expressing murine TLR7 (agonism; lowest active concentration); format: cell-based
T1 construct: HEK-Blue-mTLR7 reporter cells
T1 sequence (P58681 27-1050): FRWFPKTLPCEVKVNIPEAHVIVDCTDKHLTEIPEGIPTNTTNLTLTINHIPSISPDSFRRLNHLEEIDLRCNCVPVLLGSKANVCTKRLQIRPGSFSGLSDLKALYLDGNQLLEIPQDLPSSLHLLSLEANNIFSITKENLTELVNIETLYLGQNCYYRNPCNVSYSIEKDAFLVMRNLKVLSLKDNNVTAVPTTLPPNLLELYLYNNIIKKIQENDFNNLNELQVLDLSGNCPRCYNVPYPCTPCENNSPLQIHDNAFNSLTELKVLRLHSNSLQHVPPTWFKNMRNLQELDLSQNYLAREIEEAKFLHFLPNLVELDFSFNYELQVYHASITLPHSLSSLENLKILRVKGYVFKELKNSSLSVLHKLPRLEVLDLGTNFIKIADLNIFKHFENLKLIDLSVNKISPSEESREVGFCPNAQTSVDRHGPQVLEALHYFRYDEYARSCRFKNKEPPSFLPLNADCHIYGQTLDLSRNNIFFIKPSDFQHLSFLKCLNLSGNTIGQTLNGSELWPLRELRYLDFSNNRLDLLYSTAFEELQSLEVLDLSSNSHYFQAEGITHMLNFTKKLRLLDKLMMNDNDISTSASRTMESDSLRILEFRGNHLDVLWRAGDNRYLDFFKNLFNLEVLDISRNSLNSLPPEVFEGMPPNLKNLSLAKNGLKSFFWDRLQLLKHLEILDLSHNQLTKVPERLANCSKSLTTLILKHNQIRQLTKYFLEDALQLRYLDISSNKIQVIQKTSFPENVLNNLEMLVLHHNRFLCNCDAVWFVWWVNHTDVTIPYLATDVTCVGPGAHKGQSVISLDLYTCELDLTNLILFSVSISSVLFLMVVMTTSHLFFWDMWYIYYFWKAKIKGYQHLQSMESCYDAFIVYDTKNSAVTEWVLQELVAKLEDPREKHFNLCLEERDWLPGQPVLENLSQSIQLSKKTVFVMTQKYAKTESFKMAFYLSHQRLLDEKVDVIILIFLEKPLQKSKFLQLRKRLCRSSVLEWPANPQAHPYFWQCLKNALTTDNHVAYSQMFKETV

TLR7 [2] = target: T2, TLR7 (Homo sapiens, UniProt Q9NYK1); assay: NF-kB reporter HEK293 cells expressing human TLR7 (agonism; lowest active concentration); format: cell-based
T2 construct: HEK-Blue-hTLR7 reporter cells
T2 sequence (Q9NYK1 27-1049): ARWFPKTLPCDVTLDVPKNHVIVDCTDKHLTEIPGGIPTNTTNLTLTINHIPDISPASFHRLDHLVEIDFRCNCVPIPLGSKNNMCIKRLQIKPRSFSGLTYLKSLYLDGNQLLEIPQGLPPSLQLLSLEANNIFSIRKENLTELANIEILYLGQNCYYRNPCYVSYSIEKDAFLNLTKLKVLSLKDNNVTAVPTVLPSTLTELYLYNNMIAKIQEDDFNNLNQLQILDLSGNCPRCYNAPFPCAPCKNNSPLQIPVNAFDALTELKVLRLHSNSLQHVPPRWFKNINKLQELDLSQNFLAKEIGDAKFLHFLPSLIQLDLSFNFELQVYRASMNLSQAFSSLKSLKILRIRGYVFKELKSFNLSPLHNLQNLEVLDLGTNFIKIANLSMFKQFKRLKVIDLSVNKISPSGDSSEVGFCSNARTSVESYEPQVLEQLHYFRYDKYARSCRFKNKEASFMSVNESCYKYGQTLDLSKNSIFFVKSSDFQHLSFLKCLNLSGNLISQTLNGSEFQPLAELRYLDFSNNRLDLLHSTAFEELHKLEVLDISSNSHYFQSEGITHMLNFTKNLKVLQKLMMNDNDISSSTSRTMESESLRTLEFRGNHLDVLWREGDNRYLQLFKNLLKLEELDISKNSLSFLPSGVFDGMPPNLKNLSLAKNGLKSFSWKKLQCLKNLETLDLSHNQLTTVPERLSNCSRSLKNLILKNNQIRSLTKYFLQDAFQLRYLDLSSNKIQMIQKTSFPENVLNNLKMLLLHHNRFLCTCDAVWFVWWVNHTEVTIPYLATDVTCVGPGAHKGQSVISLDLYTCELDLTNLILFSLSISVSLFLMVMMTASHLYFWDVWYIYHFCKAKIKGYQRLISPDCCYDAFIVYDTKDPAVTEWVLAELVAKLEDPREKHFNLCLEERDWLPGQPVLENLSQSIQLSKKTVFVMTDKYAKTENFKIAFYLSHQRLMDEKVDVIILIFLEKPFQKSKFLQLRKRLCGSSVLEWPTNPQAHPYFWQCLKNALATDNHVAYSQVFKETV

## CC(C)Cn1cnc2c(N)nc3ccccc3c21 [imiquimod]
TLR7 [1]
  NF-kB reporter HEK293 cells expressing murine TLR7 (agonism); lowest active conce: 4.16 µM
TLR7 [2]
  NF-kB reporter HEK293 cells expressing human TLR7 (agonism); lowest active concen: 4.16 µM
